# Laboratory results reported in patent US7462600B2, “Macrolides” (Pfizer Inc, priority 2004, dated 2008).
# Where two headings read alike, the source gives them in different places.
# Key:
# Assay type in all cases: cell-based
# [1] = test system: Streptococcus pyogenes 1079; test: MIC, microtiter broth dilution (NCCLS M100-S14), S. pyogenes 1079 (ermB)
# Method in brief: (§1)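 Compounds were first dissolved in DMSO (40 mg/ml stock), then tested by broth dilution in microtiter trays. MICs were interpreted using the 14th Informational Supplement (M100-S14) criteria.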
# [2] = test system: Streptococcus pneumoniae 1016; test: MIC, microtiter broth dilution (NCCLS M100-S14), S. pneumoniae 1016 (susceptible)
# Method in brief: as §1
# [3] = test system: Streptococcus pneumoniae 1095; details: microtiter broth dilution
# Method in brief: as §1
# [4] = test system: Streptococcus pneumoniae 1175; details: microtiter broth dilution
# Method in brief: as §1
# [5] = test system: Haemophilus influenzae 1218; test: MIC, microtiter broth dilution (NCCLS M100-S14), H. influenzae 1218 (susceptible)
# Method in brief: as §1
# [6] = S. pneumoniae 1016 (susceptible)
# [7] = H. influenzae 1218 (susceptible)
SMILES,MIC S. pyogenes 1079 ([1]; Streptococcus pyogenes 1079),MIC S. pneumo. 1016 ([2]; Streptococcus pneumoniae 1016),MIC S. pneumo. 1095 ([3]; Streptococcus pneumoniae 1095),MIC S. pneumo. 1175 ([4]; Streptococcus pneumoniae 1175),MIC H. influenzae 1218 ([5]; Haemophilus influenzae 1218),MIC S. pyogenes 1079 ([1]; S. pyogenes 1079 (ermB)),"MIC S. pneumo. 1016 [2, 6]",MIC S. pneumo. 1095 ([3]; S. pneumoniae 1095 (ermB)),MIC S. pneumo. 1175 ([4]; S. pneumoniae 1175 (mefA)),"MIC H. influenzae 1218 [5, 7]"
CC[C@H]1OC(=O)[C@H](C)C(=O)[C@H](C)[C@@H](O[C@@H]2O[C@H](C)C[C@H](N(C)C)[C@H]2O)[C@](C)(OC)C[C@@H](C)C(=O)[C@H](C)[C@H]2N(CC3(C)CN(Cc4c[nH]nc4-c4ccccc4)C3)C(=O)O[C@]12C [6.09],>64.00 µg/mL,<0.06 µg/mL,<0.06 µg/mL,0.25 µg/mL,0.5 µg/mL,–,–,–,–,–
"CCC1OC(=O)C(C)C(=O)C(C)C(OC2OC(C)CC(N(C)C)C2O)C(C)(OC)CC(C)C(=O)C(C)C2N(C3CN(Cc4ccnc5ccc(OC)cc45)C3)C(=O)OC12C (stereo not drawn) [Example 1.90, 3-descladinosyl-11,12-dideoxy-4-O-methyl-3-oxo-12,11-(oxycarbonyl-(1-(6-methoxyquinoline-4-methyl)-azetidin-3-yl)-imino)-erythromycin A]",2 µg/mL,<0.063 µg/mL,0.125 µg/mL,<0.063 µg/mL,2 µg/mL,–,–,–,–,–
"CCC1OC(=O)C(C)C(=O)C(C)C(OC2OC(C)CC(N(C)C)C2O)C(C)(OC)CC(C)C(=O)C(C)C2N(C3CN(Cc4c(Cl)cnc5[nH]cnc45)C3)C(=O)OC12C (stereo not drawn) [Example 1.100, 3-descladinosyl-11,12-dideoxy-6-O-methyl-3-oxo-12,11-(oxycarbonyl-(1-(6-chloro-3H-imidazo[4,5-b]pyridine-7-methyl)-azetidin-3-yl)-imino)-erythromycin A]",0.125 µg/mL,<0.063 µg/mL,<0.063 µg/mL,<0.063 µg/mL,0.5 µg/mL,–,–,–,–,–
CCC1OC(=O)C(C)C(=O)C(C)C(OC2OC(C)CC(N(C)C)C2O)C(C)(OC)CC(C)C(=O)C(C)C2N(CC3CN(C(=O)c4ccncc4)C3)C(=O)OC12C (stereo not drawn) [4.05],>64.00 µg/mL,0.02 µg/mL,2 µg/mL,1 µg/mL,4 µg/mL,–,–,–,–,–
"CCC1OC(=O)C(C)C(=O)C(C)C(OC2OC(C)CC(N(C)C)C2O)C(C)(OC)CC(C)C(=O)C(C)C2N(C3CN(S(=O)(=O)c4ccc(-n5cccn5)cc4)C3)C(=O)OC12C (stereo not drawn) [Example 3.44, 3-descladinosyl-11,12-dideoxy-6-O-methyl-3-oxo-12,11-(oxycarbonyl-(1-(4-(1H-pyrazol-1-yl)benzenesulfonyl)-azetidin-3-yl)-imino)-erythromycin A]",0.12 µg/mL,<0.06 µg/mL,<0.06 µg/mL,<0.06 µg/mL,0.25 µg/mL,–,–,–,–,–
"CCC1OC(=O)C(C)C(=O)C(C)C(OC2OC(C)CC(N(C)C)C2O)C(C)(OC)CC(C)C(=O)C(C)C2N(C3CN(Cc4cccc5nccnc45)C3)C(=O)OC12C (stereo not drawn) [Example 1.12, 3-descladinosyl-11,12-dideoxy-6-O-methyl-3-oxo-12,11-(oxycarbonyl-(1-((quinoxalin-8-yl)-methyl)-azetidin-3-yl)-imino)-erythromycin A]",2 µg/mL,<0.06 µg/mL,<0.06 µg/mL,<0.06 µg/mL,0.25 µg/mL,–,–,–,–,–
"CCC1OC(=O)C(C)C(=O)C(C)C(OC2OC(C)CC(N(C)C)C2O)C(C)(OC)CC(C)C(=O)C(C)C2N(CC3CN(Cc4ccc5ncccc5c4)C3)C(=O)OC12C (stereo not drawn) [Example 4.14, 3-descladinosyl-11,12-dideoxy-6-O-methyl-3-oxo-12,11-(oxycarbonyl-(1-((quinolin-6-yl)-methyl)-(azetidin-3-yl)-methyl)-imino)-erythromycin A]",8 µg/mL,<0.06 µg/mL,<0.06 µg/mL,<0.06 µg/mL,0.5 µg/mL,–,–,–,–,–
"CCC1OC(=O)C(C)C(=O)C(C)C(OC2OC(C)CC(N(C)C)C2O)C(C)(OC)CC(C)C(=O)C(C)C2N(C3CN(S(=O)(=O)c4ccc(C)c5ncccc45)C3)C(=O)OC12C (stereo not drawn) [Example 3.111, 3-descladinosyl-11,12-dideoxy-6-O-methyl-3-oxo-12,11-(oxycarbonyl-(1-(8-methylquinoline-5-sulfonyl)-azetidin-3-yl)-imino)erythromycin A]",1 µg/mL,<0.063 µg/mL,<0.063 µg/mL,<0.063 µg/mL,0.5 µg/mL,–,–,–,–,–
"CCC1OC(=O)C(C)C(=O)C(C)C(OC2OC(C)CC(N(C)C)C2O)C(C)(OC)CC(C)C(=O)C(C)C2N(C3CN(S(=O)(=O)c4cccc5nsnc45)C3)C(=O)OC12C (stereo not drawn) [Example 3.06, 3-descladinosyl-11,12-dideoxy-6-O-methyl-3-oxo-12,11-(oxycarbonyl-(1-(benzo[1,2,5]thiadiazole-4-sulfonyl)-azetidin-3-yl)-imino)erythromycin A]",1 µg/mL,<0.06 µg/mL,<0.06 µg/mL,<0.06 µg/mL,0.12 µg/mL,–,–,–,–,–
CCC1OC(=O)C(C)C(=O)C(C)C(OC2OC(C)CC(N(C)C)C2O)C(C)(OC)CC(C)C(=O)C(C)C2N(CC3CCCN3C(=O)c3nc4cncnc4[nH]3)C(=O)OC12C (stereo not drawn) [10.26],–,–,–,–,–,>64.00 µg/mL,<0.06 µg/mL,<0.06 µg/mL,1 µg/mL,2 µg/mL
CCC1OC(=O)C(C)C(=O)C(C)C(OC2OC(C)CC(N(C)C)C2O)C(C)(OC)CC(C)C(=O)C(C)C2N(CC3CN(Cc4cnn(-c5cccc(F)c5)c4)C3)C(=O)OC12C (stereo not drawn) [4.21],64 µg/mL,<0.06 µg/mL,2 µg/mL,<0.06 µg/mL,0.5 µg/mL,–,–,–,–,–
"CCc1nn(C)c2ccc(S(=O)(=O)N3CC(N4C(=O)OC5(C)C(CC)OC(=O)C(C)C(=O)C(C)C(OC6OC(C)CC(N(C)C)C6O)C(C)(OC)CC(C)C(=O)C(C)C45)C3)cc12 (stereo not drawn) [Example 3.117, 3-descladinosyl-11,12-dideoxy-6-O-methyl-3-oxo-12,11-(oxycarbonyl-(1-(3-ethyl-1-methyl-1H-indazole-5-sulfonyl)-azetidin-3-yl)-imino)-erythromycin A]",1 µg/mL,<0.063 µg/mL,<0.063 µg/mL,<0.063 µg/mL,1 µg/mL,–,–,–,–,–
CCC1OC(=O)C(C)C(=O)C(C)C(OC2OC(C)CC(N(C)C)C2O)C(C)(OC)CC(C)C(=O)C(C)C2N(CC3CN(Cc4cnc5ccccc5c4)C3)C(=O)OC12C (stereo not drawn) [4.10],16 µg/mL,<0.06 µg/mL,1 µg/mL,<0.06 µg/mL,<0.06 µg/mL,–,–,–,–,–
CC[C@H]1OC(=O)[C@H](C)C(=O)[C@H](C)[C@@H](O[C@@H]2O[C@H](C)C[C@H](N(C)C)[C@H]2O)[C@](C)(OC)C[C@@H](C)C(=O)[C@H](C)[C@H]2N(CC3(O)CN(C(=O)c4cncc5ccccc45)C3)C(=O)O[C@]12C [7.23],–,–,–,–,–,>64.00 µg/mL,<0.06 µg/mL,0.5 µg/mL,0.5 µg/mL,2 µg/mL
"CCC1OC(=O)C(C)C(=O)C(C)C(OC2OC(C)CC(N(C)C)C2O)C(C)(OC)CC(C)C(=O)C(C)C2N(CC3CN(Cc4c[nH]c5ncccc45)C3)C(=O)OC12C (stereo not drawn) [Example 4.18, 3-descladinosyl-11,12-dideoxy-6-O-methyl-3-oxo-12,11-(oxycarbonyl-(1-((1H-pyrrolo[2,3-b]pyridin-3-yl)-methyl)-(azetidin-3-yl)-methyl)-imino)-erythromycin A]",8 µg/mL,<0.06 µg/mL,0.12 µg/mL,0.5 µg/mL,0.25 µg/mL,–,–,–,–,–
"CCC1OC(=O)C(C)C(=O)C(C)C(OC2OC(C)CC(N(C)C)C2O)C(C)(OC)CC(C)C(=O)C(C)C2N(C3CN(S(=O)(=O)c4ccc5sc(C)nc5c4)C3)C(=O)OC12C (stereo not drawn) [Example 3.90, 3-descladinosyl-11,12-dideoxy-6-O-methyl-3-oxo-12,11-(oxycarbonyl-(1-(2-methylbenzo[d]thiazole-5-sulfonyl)-azetidin-3-yl)-imino)-erythromycin A]",8 µg/mL,<0.06 µg/mL,<0.06 µg/mL,<0.06 µg/mL,0.25 µg/mL,–,–,–,–,–
CCC1OC(=O)C(C)C(=O)C(C)C(OC2OC(C)CC(N(C)C)C2O)C(C)(OC)CC(C)C(=O)C(C)C2N(CC3CCCN3C(=O)c3cn4cccnc4n3)C(=O)OC12C (stereo not drawn) [10.43],–,–,–,–,–,>64.00 µg/mL,<0.06 µg/mL,<0.06 µg/mL,0.25 µg/mL,1 µg/mL
"CCC1OC(=O)C(C)C(=O)C(C)C(OC2OC(C)CC(N(C)C)C2O)C(C)(OC)CC(C)C(=O)C(C)C2N(C3CN(S(=O)(=O)c4ccc(-n5nc(C)cc5C)cc4)C3)C(=O)OC12C (stereo not drawn) [Example 3.47, 4-(3,5-dimethyl-1H-pyrazol-1-yl)benzenesulfonyl]",64 µg/mL,<0.06 µg/mL,0.5 µg/mL,<0.06 µg/mL,8 µg/mL,–,–,–,–,–
